Assay [1] deals with T1, PARP (Homo sapiens, UniProt P09874). Put plainly: Enzymatic Assay 2: HT Universal Chemiluminescent PARP Assay of cleaved compounds.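 Note: PARP reaction with activated DNA run 1 h at room temperature, product detected via streptavidin-HRP and luminescence endpoint reading on a plate reader.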
Method: An equal volume of 1×PARP cocktail containing activated DNA was added to each well and the reaction was incubated for one hour at room temperature. The wells were washed twice with 1×PBS+0.1% Triton X-100 and twice with PBS. 50 ul/well of diluted streptavidin-HRP was added and the wells were incubated for one hour at room temperature. The wells were washed twice with 1×PBS+0.1% Triton X-100 and washed twice with PBS. The liquid was 5 removed, 100 ul/well 1:1 PeroxyGlow A/PeroxyGlow B was added and the chemiluminescent readings were measured on a BioTek Cytation 5 plate reader using the luminescence fiber endpoint.
The target of assay [2] is T1, PARP. The assay can be described thus: Enzymatic Assay 1: HT F Homogeneous PARP Inhibition Assay of cleaved compounds. Format: biochemical. The arrangement: purchased Trevigen #4690-096-K (Assay 1); #4676-096-K (Assay 2).

T1 sequence (P09874 whole entry): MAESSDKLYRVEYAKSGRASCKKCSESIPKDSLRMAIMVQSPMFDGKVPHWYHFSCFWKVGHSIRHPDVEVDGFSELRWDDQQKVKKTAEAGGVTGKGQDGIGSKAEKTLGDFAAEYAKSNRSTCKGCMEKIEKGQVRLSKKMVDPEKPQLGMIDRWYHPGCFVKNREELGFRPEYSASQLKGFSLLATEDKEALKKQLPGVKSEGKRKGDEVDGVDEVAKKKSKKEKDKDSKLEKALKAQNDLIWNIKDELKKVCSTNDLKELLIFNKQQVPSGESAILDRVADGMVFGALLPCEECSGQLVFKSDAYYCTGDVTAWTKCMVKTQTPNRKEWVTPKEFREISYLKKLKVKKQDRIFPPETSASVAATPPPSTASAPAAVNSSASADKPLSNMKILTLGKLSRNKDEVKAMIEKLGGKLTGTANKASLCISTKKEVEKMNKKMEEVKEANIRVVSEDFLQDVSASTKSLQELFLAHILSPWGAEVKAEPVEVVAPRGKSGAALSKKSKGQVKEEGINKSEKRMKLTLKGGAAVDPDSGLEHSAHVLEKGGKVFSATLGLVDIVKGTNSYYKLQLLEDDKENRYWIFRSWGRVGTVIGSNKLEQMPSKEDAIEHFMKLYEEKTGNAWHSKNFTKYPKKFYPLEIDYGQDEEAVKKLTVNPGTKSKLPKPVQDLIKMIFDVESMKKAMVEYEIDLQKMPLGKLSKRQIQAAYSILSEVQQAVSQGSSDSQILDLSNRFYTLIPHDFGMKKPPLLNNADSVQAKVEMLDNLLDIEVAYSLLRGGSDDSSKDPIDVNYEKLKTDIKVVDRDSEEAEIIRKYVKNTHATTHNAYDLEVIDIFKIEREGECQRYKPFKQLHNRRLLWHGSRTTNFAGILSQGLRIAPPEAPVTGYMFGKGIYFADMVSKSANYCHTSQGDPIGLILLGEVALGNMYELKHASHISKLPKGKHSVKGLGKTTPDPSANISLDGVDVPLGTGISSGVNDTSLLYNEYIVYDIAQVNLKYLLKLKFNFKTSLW

Regarding `CC(C)C[C@H](NC(=O)[C@H](Cc1ccc(O)cc1)NC(=O)[C@H](C)NC(=O)[C@H](CCCNC(=N)N)NC(=O)[C@H](Cc1c[nH]c2ccccc12)NC(=O)[C@@H]1CCCN1C(=O)[C@H](CC(N)=O)NC(=O)[C@H](CCC(N)=O)NC(=O)[C@H](CC(=O)O)NC(=O)[C@H](CC(=O)O)NC(=O)[C@H](C)N)C(=O)N[C@@H](CC(=O)O)C(=O)N[C@@H](CC(C)C)C(=O)N[C@@H](CC(C)C)C(=O)N[C@@H](Cc1ccccc1)C(=O)N1CCC[C@H]1C(=O)N[C@H](C(=O)N[C@@H](CC(=O)O)C(=O)N[C@H](C(=O)N[C@@H](CC(C)C)C(=O)N[C@@H](CC(C)C)C(=O)N[C@@H](CC(C)C)C(=O)N[C@@H](CC(=O)O)C(=O)N[C@@H](CC(C)C)C(=O)N[C@@H](CC(C)C)C(=O)N[C@@H](Cc1c[nH]c2ccccc12)C(=O)N[C@@H](CC(=O)O)C(=O)N[C@@H](C)C(=O)N[C@@H](CC(=O)O)C(=O)N[C@@H](CCC(=O)O)C(=O)N[C@@H](CSS[C@H](C)COC(=O)OCc1ccc(-c2nc3c(C(N)=O)cccc3[nH]2)cc1)C(=O)NCC(=O)O)[C@@H](C)O)[C@@H](C)O` [Example 7], the IC50 – broadly, the point on the concentration scale where inhibition reaches its midpoint – in assay [1] (read-out: IC50 Enzymatic Assay 2, Examples cleaved per Example A (crude cleavage solution), R^8H starting materials as such) came to 6.45 nM; in assay [2] (read-out: IC50 Enzymatic Assay 1; Examples cleaved per Example A (crude cleavage solution); R^8H starting materials as such; 1 uM NAD), 111 nM.

For the compound `NC(=O)c1cccc2[nH]c(-c3ccc(CO)cc3)nc12` [R^8H-1, 2-[4-(hydroxymethyl)phenyl]-1H-benzimidazole-4-carboxamide, reference compound], the IC50 in assay [1] is 6.4 nM; in assay [2] (Examples cleaved per Example A (crude cleavage solution); R^8H starting materials as such; 1 uM NAD; read-out: IC50 Enzymatic Assay 1), 96.8 nM.

The values above are taken from patent publication US12427157B2, “Methods for treatment of diseases involving acidic or hypoxic diseased tissues” (Cybrexa 1, Inc., priority 2018, dated 2025).
